Test results reported in PubChem BioAssay (NCI).
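Each compound was tested at five concentrations against cells in 96-well plates for 48 hours. GI50 = concentration required for 50% inhibition of growth. TGI marks complete inhibition of growth.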

Key:
Assay in all cases: NCI-60 cell line screen, 48 h
[1] = test system: A549 NSCLC
[2] = test system: HT29 colon
[3] = test system: MDA-MB-231 breast
[4] = test system: OVCAR-4 ovarian
[5] = test system: PC-3 prostate
[6] = test system: SF-539 CNS
[7] = test system: SK-MEL-2 melanoma
[8] = test system: SK-MEL-5 melanoma
[9] = test system: T-47D breast
[10] = test system: TK-10 renal

Compound	GI50 [1] [µM]	TGI [1] [µM]	GI50 [2] [µM]	TGI [2] [µM]	GI50 [3] [µM]	TGI [3] [µM]	GI50 [4] [µM]	TGI [4] [µM]	GI50 [5] [µM]	TGI [5] [µM]	GI50 [6] [µM]	TGI [6] [µM]	GI50 [7] [µM]	TGI [7] [µM]	GI50 [8] [µM]	TGI [8] [µM]	GI50 [9] [µM]	TGI [9] [µM]	GI50 [10] [µM]	TGI [10] [µM]
Nc1nc2c(nnn2C2OC(CO)C(O)C2O)c(=O)[nH]1 (stereo not drawn)	3.01	> 100	1.66	42.6	4.48	> 100	1.59	> 100	0.617	> 44	1.59	> 39.7	0.777	23.8	2.44	9.24	2.87	> 100	2.05	32.6
CCCC[n+]1c(/C=C\c2c(OC)cc(OC)cc2OC)ccc2ccccc21	1.18	10.5	0.663	4.09	1.42	4.62	1.68	13.6	0.737	5.71	1.44	4.65	1.08	2.74	0.299	1.29	0.205	2.06	1.55	6.26
CC1SC2(CCC(c3ccccc3)CC2)N(NC(=O)c2[nH]c3ccc(F)cc3c2-c2ccccc2)C1=O (stereo not drawn)	7.72	46.8	1.67	4.18	14.8	44	3.87	18.3	1.56	5.34	20	49.3	14	38.6	3.85	21.6	14.2	> 100	7.57	> 100
O=C1C(Nc2ccc(Br)cc2)=C(I)C(=O)c2ncccc21	2.24	8.18	1.83	9.19	0.806	1.63	0.601	1.24	0.888	6.44	1.03	2.49	1.27	4.77	0.803	1.51	0.954	2.24	3.54	9.74
O=c1c2c(c3ccccc3n1-c1ccccc1)NC(=S)NC2c1ccc(Cl)cc1 (stereo not drawn)	4.25	> 100	4.69	> 100	3.67	37.6	5.66	> 100	2.68	> 100	2.37	42.6	3.62	32.4	2.42	10.5	20	> 100	9.62	> 100
O=C1CCCCC=C1C[N+](=O)[O-]	38.2	> 100	19.3	50.3	22.2	49.4	21.4	46	41.1	> 100	27.7	74.2	19.5	44.4	26.9	74.3	26.6	88.1	24.7	54.8
c1ccc(Nc2nc(-c3ccccn3)cs2)nc1	0.623	> 35	0.603	21.1	0.934	> 100	0.593	> 100	0.568	> 89.9	0.825	> 88.7	0.442	30.4	0.355	6.17	0.698	> 100	0.573	> 100
COc1cc2nc(-c3ccc(Cl)cc3)cc(OCCCN3CCCC3)c2cc1OC	1.52	12.4	0.454	4.17	0.907	4.08	3	22.6	1.76	10.3	2.44	8.07	2.16	5.22	0.961	2.16	1.02	10.5	2.33	7.41
O=C(c1ccco1)c1c(C(F)(F)F)nc2ccc(C(F)(F)F)cc2[n+]1[O-]	> 64.4	> 100	> 61.4	> 100	23.7	65.4	24.1	68.6	41.9	> 100	18.3	34.5	> 64.6	> 100	31.4	> 67.1	36.3	> 87.5	23.9	50
Clc1cc2c(nn1)Nc1ccccc1S2	> 100	> 100	> 100	> 100	> 100	> 100	> 100	> 100	> 100	> 100	> 100	> 100	> 100	> 100	> 100	> 100	> 100	> 100	> 100	> 100
Cc1cccc2nc3cccc(C(=O)NCCNCCNCCNC(=O)c4cccc5nc6cccc(C)c6nc45)c3nc12	–	–	< 0.01	0.254	0.161	3.93	0.168	5.09	< 0.0164	4.63	< 0.0254	4.06	< 0.01	0.186	< 0.0131	0.851	< 0.0123	8.67	< 0.0147	0.846
CC(C)(CCN=C(N)Nc1ccccn1)c1ccc(C(F)(F)F)cc1	16.5	31.6	10.4	24	14.9	29.8	11.8	28.1	14.2	28.9	15.3	29.4	16.9	32.9	12	25	11.1	28.5	15.5	29.5
Cn1c2ccccc2c(=O)c2c(O)cc3c(c21)CC(C1(C)CO1)O3 (stereo not drawn)	–	28.2	–	20	–	5.85	–	31.2	–	14.2	–	10.8	–	2.32	–	3.88	–	24.9	–	42
